The experiment has as its target T1, STAT4 (Homo sapiens, UniProt Q14765).
T1 sequence (Q14765 1-748): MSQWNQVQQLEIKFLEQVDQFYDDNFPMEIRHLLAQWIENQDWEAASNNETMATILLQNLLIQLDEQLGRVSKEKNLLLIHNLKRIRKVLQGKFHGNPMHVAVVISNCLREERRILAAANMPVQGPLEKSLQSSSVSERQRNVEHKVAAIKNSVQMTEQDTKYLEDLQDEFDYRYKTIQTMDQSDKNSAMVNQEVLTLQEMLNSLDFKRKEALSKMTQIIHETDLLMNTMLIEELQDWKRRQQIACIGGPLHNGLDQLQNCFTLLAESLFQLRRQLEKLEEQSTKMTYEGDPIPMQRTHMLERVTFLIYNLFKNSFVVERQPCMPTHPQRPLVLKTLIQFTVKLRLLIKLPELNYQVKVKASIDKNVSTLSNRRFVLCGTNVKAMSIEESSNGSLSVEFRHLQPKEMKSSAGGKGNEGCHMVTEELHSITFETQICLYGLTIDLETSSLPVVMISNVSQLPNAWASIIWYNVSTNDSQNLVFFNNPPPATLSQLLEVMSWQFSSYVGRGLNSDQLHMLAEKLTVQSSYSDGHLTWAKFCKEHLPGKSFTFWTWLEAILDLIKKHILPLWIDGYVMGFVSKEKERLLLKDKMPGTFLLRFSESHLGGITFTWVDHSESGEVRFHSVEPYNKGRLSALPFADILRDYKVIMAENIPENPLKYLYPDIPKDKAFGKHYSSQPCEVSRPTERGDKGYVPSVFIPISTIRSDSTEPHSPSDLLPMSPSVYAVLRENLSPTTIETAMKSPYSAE
The experiment is described as follows: HTRF assay, STAT4. The settings on record: STAT4 30 nM, without reducing agent, 1 h. The format is binding. An excerpt: The azo dyes PPADS and iso‐PPADS have a deep red color in aqueous solution. […] In order to exclude this possibility, we established homogeneous time‐resolved fluorescence resonance energy transfer (HTRF) assays to confirm the degree of binding between STAT4, STAT5a, and STAT5b and the respective 5‐carboxyfluorescein‐labeled binding peptides used in the FP assay. In addition, an HTRF assay was established for STAT3, one of the STAT proteins targeted to a lesser extent in FP assays, as a specificity control (Figure 1B,C). The STAT protein constructs each contain a 6x‐His‐tag.^[ [15], [16], [17], [22] ^] A Tb^3+‐cryptate fused to an anti‐6x‐His antibody was chosen as the long‐lived fluorescent donor, while the carboxyfluorescein linked to the respective STAT‐binding peptides served as the acceptor (Figure 2A). Emission was measured with a time delay of 60 μs after excitation, allowing any initial compound fluorescence to decay beforehand. […]
Screening of chemical libraries comprising approximately 5000 known bioactive compounds in fluorescence polarization-based assays against phosphorylation-dependent protein-protein interaction domains, including STAT proteins, has been described.[1] […]
Fluorescence polarization assays
Competitive fluorescence polarization (FP) assays for STAT1,[2] […] Briefly, peptide binding to proteins was analyzed using the following carboxyfluorescein (CF) -labelled pepti des at a concentration of 10 nM: STAT1: 5-CF-GpYDKPHVL-OH, STAT3: 5-CF-GpYLPQTV -NH2, STAT4: 5-CF-GpYLPQNID-OH, STAT5a and STAT5b: 5-CF-GpYLVLDKW-OH, STAT6: 5- […]
CFGp[…]-OH. […] FP was measured using an Infinite F500 plate reader (Tecan) and measurements were converted into percent inhibition according to the binding curve equation. Curves were plotted and best fits calculated using OriginPro […]
Homogenous time-resolved fluorescence (HTRF) assays for STAT3, STAT4, STAT5a and STAT5b were carried out using Cisbio Monoclonal Antibody Anti-6His-Tb Gold as the fluorescence donor (Perkin Elmer) and the corresponding CF-labelled binding peptide as the acceptor. […] The average reading from 3 wells was obtained. […]
In general terms: TR-FRET usually uses a lanthanide donor and a delayed reading to cut background.

In the case of `Cc1nc(/N=N/c2cc(S(=O)(=O)O)ccc2S(=O)(=O)O)c(COP(=O)(O)O)c(C=O)c1O` [iso‐PPADS], inhibition was half-maximal at 8.6 ± 1.3 µM (IC50).

Molecule `Cc1nc(/N=N/c2ccc(S(=O)(=O)O)cc2S(=O)(=O)O)c(COP(=O)(O)O)c(C=O)c1O` [PPADS, pyridoxalphosphate‐6‐azophenyl‐2',4'‐disulfonic acid] registered an IC50 of 2.92 ± 0.36 µM.

As a reminder, the IC50 is the midpoint of a concentration-inhibition curve. Higher therefore signals a need for much substance.
